Activity calls are given as the source filed them. The calls are words filed in the database; no cut-off is given here.
How the values were obtained:
[1] = test system: CT26; experiment: Antitumor activity against mouse CT26 cells assessed as inhibition of cell viability incubated for 72 hrs by SRB assay; type: functional, cell-based; conditions: CT26, 72 h
[2] = test system: LN-18; experiment: Antitumor activity against human LN-18 cells assessed as inhibition of cell viability incubated for 72 hrs by SRB assay; type: functional, cell-based; conditions: LN-18, 72 h
[3] = test system: CT26; experiment: Induction of DNA damage in mouse CT26 cells assessed as increase in gammaH2AX level at 0.1 to 10 uM measured after 12 hrs by immunoblot analysis; type: functional, cell-based; conditions: dose 0.1-10 µM
[4] = molecular target: Nicotinamide phosphoribosyltransferase (Homo sapiens, UniProt P43490); experiment: Inhibition of recombinant human NAMPT preincubated for 5 mins followed by NAM addition measured for 15 mins by fluorescence based assay
Sequence of Nicotinamide phosphoribosyltransferase (P43490 whole entry): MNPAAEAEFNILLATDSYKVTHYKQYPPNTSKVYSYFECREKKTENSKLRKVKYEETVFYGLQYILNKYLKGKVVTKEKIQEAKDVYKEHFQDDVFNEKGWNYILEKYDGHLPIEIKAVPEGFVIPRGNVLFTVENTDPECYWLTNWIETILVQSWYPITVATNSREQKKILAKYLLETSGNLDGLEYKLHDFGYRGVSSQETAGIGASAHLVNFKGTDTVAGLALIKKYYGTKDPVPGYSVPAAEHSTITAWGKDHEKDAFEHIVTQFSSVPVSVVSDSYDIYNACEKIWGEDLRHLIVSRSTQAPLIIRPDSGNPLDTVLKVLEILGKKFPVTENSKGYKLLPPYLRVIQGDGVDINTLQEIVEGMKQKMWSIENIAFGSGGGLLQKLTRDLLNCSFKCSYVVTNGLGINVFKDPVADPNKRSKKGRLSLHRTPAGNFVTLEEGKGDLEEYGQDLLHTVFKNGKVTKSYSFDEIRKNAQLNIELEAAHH

[5] = Antitumor activity against […] Hepa1-6 cells assessed as inhibition of cell viability incubated for 72 hrs by SRB assay; type: functional, cell-based; conditions: Mus musculus, Hepa1-6, 72 h
[6] = test system: B16; experiment: Antitumor activity against mouse B16 cells assessed as inhibition of cell viability incubated for 72 hrs by SRB assay; type: functional, cell-based; conditions: B16, 72 h
[7] = test system: CT26; experiment: Antitumor activity against mouse CT26 cells assessed as decrease in intracellular NAD level upto 10 uM measured for 6 hrs by absorbance based assay; type: functional, cell-based
[8] = test system: CT26; experiment: Induction of DNA damage in mouse CT26 cells assessed as increase in gammaH2AX level at 0.1 to 50 uM incubated for 6 hrs by immunoblot analysis; type: functional, cell-based; conditions: dose 0.1-50 µM
[9] = test system: HepG2; experiment: Antitumor activity against human HepG2 cells assessed as decrease in intracellular NAD level measured for 24 hrs by absorbance based assay; type: functional, cell-based; conditions: dose 0.032-100 µM
[10] = test system: CT26; experiment: Induction of apoptosis in mouse CT26 cells incubated for 48 hrs by Annexin V-FITC/PI staining based flow cytometry; type: functional, cell-based; conditions: dose 10-40 nM
[11] = test system: LN-18; experiment: Antitumor activity against human LN-18 cells assessed as inhibition of cell viability at 6 nM incubated for 72 hrs in presence of NNMT inhibitor by crystal violet staining based analysis; type: functional
[12] = test system: B16; experiment: Antitumor activity against mouse B16 cells assessed as decrease in intracellular NAD level at 20 to 100 nM measured after 12 to 24 hrs by absorbance based assay; type: functional, cell-based; conditions: dose 20-100 nM, time 12-24 hrs
[13] = test system: NCI-H1299; experiment: Antitumor activity against human NCI-H1299 cells assessed as inhibition of cell viability at 20 to 80 uM incubated for 48 hrs by CCK8 assay; type: functional, cell-based; conditions: dose 20-80 µM
[14] = Toxicity in C57BL/6 mouse model allografted with mouse B16 cells assessed as body weight loss at 2 mg/kg/day, ip for approximately 10 days; type: organism-based; conditions: in vivo, 240 h, time 10 day
[15] = test system: PANC-1; experiment: Antitumor activity against human PANC-1 cells assessed as inhibition of cell viability at 20 to 80 uM incubated for 48 hrs by CCK8 assay; type: functional, cell-based; conditions: dose 20-80 µM
[16] = test system: B16; experiment: Induction of DNA damage in mouse B16 cells assessed as increase in gammaH2AX level at 0.1 uM incubated for 24 hrs by immunofluorescence staining based analysis; type: functional, cell-based
[17] = test system: A549; experiment: Antitumor activity against human A549 cells assessed as inhibition of cell viability at 20 to 80 uM incubated for 48 hrs by CCK8 assay; type: functional, cell-based; conditions: dose 20-80 µM
[18] = test system: MDA-MB-231; experiment: Antitumor activity against human MDA-MB-231 cells assessed as inhibition of cell viability at 20 to 80 uM incubated for 48 hrs by CCK8 assay; type: functional, cell-based; conditions: dose 20-80 µM
[19] = Stability in mouse microsomes assessed as half life; type: ADME, Microsome
[20] = test system: B16; experiment: Induction of DNA damage in mouse B16 cells assessed as increase in gammaH2AX level upto 100 nM incubated for 24 hrs in presence of NMN by immunofluorescence staining based analysis; type: functional, cell-based
[21] = molecular target: Nicotinamide phosphoribosyltransferase (Mus musculus) (UniProt Q99KQ4); experiment: Binding affinity to NAMPT in mouse B16 cells assessed as increase in thermal stabilization incubated for 3 hrs followed by heating at 46 to 71 degreeC for 3 mins by CETSA assay; type: cell-based; conditions: time 183.0 min
Sequence of Nicotinamide phosphoribosyltransferase (Mus musculus) (Q99KQ4 whole entry, looked up): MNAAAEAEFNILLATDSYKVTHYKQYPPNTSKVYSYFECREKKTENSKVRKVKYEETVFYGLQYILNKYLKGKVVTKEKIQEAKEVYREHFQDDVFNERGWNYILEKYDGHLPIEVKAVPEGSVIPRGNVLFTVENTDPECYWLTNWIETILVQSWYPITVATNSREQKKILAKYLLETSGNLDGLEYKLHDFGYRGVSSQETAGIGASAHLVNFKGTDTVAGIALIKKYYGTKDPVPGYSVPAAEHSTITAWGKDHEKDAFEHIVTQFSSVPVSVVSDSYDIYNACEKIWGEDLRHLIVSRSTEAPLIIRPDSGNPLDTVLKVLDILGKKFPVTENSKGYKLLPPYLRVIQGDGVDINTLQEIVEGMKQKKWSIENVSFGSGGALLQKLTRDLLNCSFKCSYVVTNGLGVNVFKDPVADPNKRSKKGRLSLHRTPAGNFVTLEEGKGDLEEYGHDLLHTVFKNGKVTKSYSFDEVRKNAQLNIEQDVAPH

[22] = test system: LN-18; experiment: Antitumor activity against human LN-18 cells assessed as inhibition of cell viability at 6 nM incubated for 72 hrs in presence of sirtuins inhibitor by crystal violet staining based analysis; type: functional
[23] = test system: B16; experiment: Antitumor activity against mouse B16 cells assessed as decrease in intracellular NAD level at 20 nM measured after 12 to 24 hrs in presence of olaparib by absorbance based assay; type: functional, cell-based; conditions: time 12-24 hrs
[24] = test system: B16; experiment: Induction of DNA damage in mouse B16 cells assessed as increase in gammaH2AX level at 100 nM incubated for 24 hrs by immunofluorescence staining based analysis; type: functional, cell-based
[25] = test system: B16; experiment: Induction of DNA damage in mouse B16 cells assessed as increase in gammaH2AX level at 100 nM by immunofluorescence staining based analysis; type: functional, cell-based; conditions: time 2-24 hrs
[26] = test system: HCT-116; experiment: Antitumor activity against human HCT-116 cells assessed as inhibition of cell viability at 20 to 80 uM incubated for 48 hrs by CCK8 assay; type: functional, cell-based; conditions: dose 20-80 µM
[27] = test system: Calf thymus DNA; experiment: Binding affinity to calf thymus DNA assessed as decrease in fluorescence intensity at 100 to 200 uM by […] displacement assay; type: nucleic-acid assay; conditions: Bos taurus; dose 100-200 µM
[28] = test system: B16; experiment: Induction of DNA damage in mouse B16 cells assessed as increase in gammaH2AX level at 20 nM incubated for 24 hrs in presence of olaparib by immunofluorescence staining based analysis; type: functional, cell-based
[29] = test system: CT26; experiment: Antitumor activity against mouse CT26 cells allografted in Balb/c mouse model at 2 mg/kg/day, ip for approximately 10 days; type: functional, organism-based; conditions: time 10.0 day
[30] = test system: B16; experiment: Induction of DNA damage in mouse B16 cells assessed as increase in gammaH2AX level at 1 uM incubated for 24 hrs by immunoblot analysis; type: functional, cell-based
[31] = test system: B16; experiment: Induction of DNA damage in mouse B16 cells assessed as increase in gammaH2AX level at 0.1 uM incubated for 24 hrs by immunoblot analysis; type: functional, cell-based
[32] = test system: HepG2; experiment: Antitumor activity against human HepG2 cells assessed as inhibition of cell viability at 20 to 80 uM incubated for 48 hrs by CCK8 assay; type: functional, cell-based; conditions: dose 20-80 µM
[33] = Toxicity in Balb/c mouse model allografted with mouse CT26 cells assessed as body weight loss at 2 mg/kg/day, ip for approximately 10 days; type: organism-based; conditions: in vivo, 240 h, time 10 day

In the case of `O=C(/C=C/c1cccnc1)NCCCCC1CCN(C(=O)c2ccccc2N(CCCl)CCCl)CC1`, the IC50 [1] is reported as 53.8 nM, the IC50 [2] is reported as 31.3 nM and the Activity [3] is reported as “Active”. The IC50 [4] was 0.16 nM, the IC50 [5] was 51.6 nM and the IC50 [6] was 72.5 nM.
`O=C(/C=C/c1cccnc1)OCCCCC1CCN(C(=O)c2ccccc2N(CCCl)CCCl)CC1` gave an IC50 [4] of 1.3 nM.
Work on `O=C(/C=C/c1cccnc1)OCCCCC1CCN(C(=O)c2cccc(N(CCCl)CCCl)c2)CC1` yielded an IC50 [4] of 3.9 nM.
In the case of `O=C(/C=C/c1cccnc1)NCCCCC1CCN(C(=O)c2ccccc2)CC1` [DAPORINAD], the IC50 [1] is reported as 34.9 nM, the IC50 [2] is reported as 33.6 nM and the Activity [7] is reported as “Active”. For the same compound, the Activity [8] was “Active”, the IC50 [5] was 33.6 nM and the IC50 [6] was 219 nM.
Work on `O=C(/C=C/c1cccnc1)NCCCCC1CCN(C(=O)c2ccc(N(CCCl)CCCl)cc2)CC1` yielded an IC50 [4] of 1.1 nM.
In the case of `O=C(/C=C/c1cccnc1)OCCCCC1CCN(C(=O)c2ccc(N(CCCl)CCCl)cc2)CC1`, the IC50 [4] is reported as 37.5 nM.
In the case of `O=C(/C=C/c1cccnc1)NCCCCC1CCN(C(=O)c2cccc(N(CCCl)CCCl)c2)CC1`, the Activity [9] is reported as “Dose-Dependent Effect”, the Activity [10] is reported as “Dose-Dependent Effect” and the Activity [11] is reported as “Active”. The Activity [12] was “Active”, the inhibition [13] was “Active” and the Activity [14] was “Non-Toxic”. The IC50 [1] was 21.8 nM, the inhibition [15] was “Active” and the IC50 [2] was 0.7 nM. The Activity [16] was “Active”, the Activity [3] was “Active” and the inhibition [17] was “Active”. For the same compound, the Activity [7] was “Active”, the inhibition [18] was “Active” and the half-life [19] was 56.1 s. The Activity [20] was “inactive”, the Activity [8] was “Active” and the IC50 [4] was 0.15 nM. The Activity [21] was “Active”, the Activity [22] was “Active” and the Activity [23] was “inactive”. The Activity [24] was “Active”, the IC50 [5] was 5.1 nM and the IC50 [6] was 52.4 nM. For the same compound, the Activity [25] was “Dose-Dependent Effect”, the inhibition [26] was “Active” and the Activity [27] was “Active”. The Activity [28] was “Active”, the Activity [29] was “Active” and the Activity [30] was “Active”. For the same compound, the Activity [31] was “Active”, the inhibition [32] was “Active” and the Activity [33] was “Non-Toxic”.
With `O=C(O)CCCc1ccc(N(CCCl)CCCl)cc1` [CHLORAMBUCIL] the IC50 [1] was > 1000 nM, the IC50 [2] was > 1000 nM and the IC50 [5] was > 1000 nM. For the same compound, the IC50 [6] was > 1000 nM.
